Laboratory results published in ChEMBL document CHEMBL3351837 (Bioorg Med Chem Lett, 2014).

Legend:
[1] = biological target: 3',5'-cyclic-AMP phosphodiesterase 4B (Homo sapiens, UniProt Q07343); assay: Inhibition of human recombinant PDE4B1 activity assessed as residual cAMP concentration by HTRF assay
[2] = biological target: 3',5'-cyclic-AMP phosphodiesterase 4D (Homo sapiens, UniProt Q08499)
Description: Inhibition of human recombinant PDE4D2 activity assessed as residual cAMP concentration by HTRF assay

[3] = Apparent permeability of the compound at pH 7.4 buffer by PAMPA; type: physicochemical
[4] = Half life in human lung S9 fraction after 60 mins by […] analysis; type: ADME, tissue-based
[5] = Half life in human plasma after 60 mins by […] analysis; type: ADME, cell-free
[6] = Half life in human lung homogenate after 60 mins by […] analysis; type: ADME, tissue-based

3',5'-cyclic-AMP phosphodiesterase 4D, sequence (Q08499 whole entry): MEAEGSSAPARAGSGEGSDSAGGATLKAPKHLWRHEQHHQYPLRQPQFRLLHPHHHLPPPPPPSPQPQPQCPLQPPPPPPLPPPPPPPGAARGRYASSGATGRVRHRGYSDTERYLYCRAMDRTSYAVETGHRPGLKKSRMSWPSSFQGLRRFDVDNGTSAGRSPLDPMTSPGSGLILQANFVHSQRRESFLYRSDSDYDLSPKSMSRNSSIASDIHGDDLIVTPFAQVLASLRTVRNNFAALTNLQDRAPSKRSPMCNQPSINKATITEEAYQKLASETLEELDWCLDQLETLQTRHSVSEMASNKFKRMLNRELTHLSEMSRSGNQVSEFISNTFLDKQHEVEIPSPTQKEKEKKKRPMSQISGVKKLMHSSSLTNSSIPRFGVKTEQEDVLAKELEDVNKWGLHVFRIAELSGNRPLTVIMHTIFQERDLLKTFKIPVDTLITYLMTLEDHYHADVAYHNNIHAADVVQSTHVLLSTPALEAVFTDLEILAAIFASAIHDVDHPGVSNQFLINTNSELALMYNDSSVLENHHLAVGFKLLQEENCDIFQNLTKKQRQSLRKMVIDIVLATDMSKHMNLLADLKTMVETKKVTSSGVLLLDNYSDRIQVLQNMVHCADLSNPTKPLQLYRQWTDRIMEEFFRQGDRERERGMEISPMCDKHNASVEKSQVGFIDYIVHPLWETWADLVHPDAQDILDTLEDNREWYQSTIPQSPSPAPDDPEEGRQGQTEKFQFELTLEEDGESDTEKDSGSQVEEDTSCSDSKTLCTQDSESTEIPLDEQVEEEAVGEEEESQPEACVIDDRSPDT
3',5'-cyclic-AMP phosphodiesterase 4B, sequence (Q07343 whole entry): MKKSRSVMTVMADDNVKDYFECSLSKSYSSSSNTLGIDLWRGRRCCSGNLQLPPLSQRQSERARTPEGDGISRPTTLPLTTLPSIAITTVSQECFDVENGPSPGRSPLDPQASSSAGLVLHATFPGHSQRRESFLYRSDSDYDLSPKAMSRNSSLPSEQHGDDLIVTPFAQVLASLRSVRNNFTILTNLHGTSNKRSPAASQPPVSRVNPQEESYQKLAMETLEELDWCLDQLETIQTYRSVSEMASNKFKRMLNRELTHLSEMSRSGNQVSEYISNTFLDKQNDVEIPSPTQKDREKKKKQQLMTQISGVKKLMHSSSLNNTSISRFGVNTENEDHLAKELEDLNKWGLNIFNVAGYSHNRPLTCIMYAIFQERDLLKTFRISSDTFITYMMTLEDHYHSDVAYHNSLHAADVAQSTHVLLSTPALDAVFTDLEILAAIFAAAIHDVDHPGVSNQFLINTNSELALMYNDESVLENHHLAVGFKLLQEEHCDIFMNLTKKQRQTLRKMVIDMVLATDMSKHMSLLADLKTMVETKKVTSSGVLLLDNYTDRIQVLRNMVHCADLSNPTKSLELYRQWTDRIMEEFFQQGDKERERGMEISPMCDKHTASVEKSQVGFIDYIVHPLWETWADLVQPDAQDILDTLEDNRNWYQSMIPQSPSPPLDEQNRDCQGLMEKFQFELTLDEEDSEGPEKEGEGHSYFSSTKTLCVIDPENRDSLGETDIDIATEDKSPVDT

Compound	IC50 [1] [nM]	IC50 [2] [nM]	Papp [3] [×10⁻⁶ cm/s]	half-life [4] [min]	half-life [5] [min]	half-life [6] [min]
O=C(Nc1c(Cl)cncc1Cl)c1ccc(OC(F)F)c(OCCCSC(CCO)C(=O)O)c1 (configuration not stated)	5.5	9.9	0.14			
O=C(Nc1c(Cl)cncc1Cl)c1ccc(OC(F)F)c(OCCCN[C@H](CCO)C(=O)O)c1	1700	7200				
CC(C)NCC(O)COc1cccc2ccccc12 (configuration not stated) [PROPRANOLOL]			10			
O=C(Nc1c(Cl)cncc1Cl)c1ccc(OC(F)F)c(OCCCCSC(CCO)C(=O)O)c1 (configuration not stated)	8.8	4.5	0.05			
COC(=O)CNCCCOc1cc(C(=O)Nc2c(Cl)cncc2Cl)ccc1OC(F)F	21	32	8.9		19	
O=C(O)CNCCCOc1cc(C(=O)Nc2c(Cl)cncc2Cl)ccc1OC(F)F	910	1500	< 0.01			
CNC(=C[N+](=O)[O-])NCCSCc1ccc(CN(C)C)o1 [RANITIDINE]			0.14			
O=C(Nc1c(Cl)cncc1Cl)c1ccc(OC(F)F)c(OCCCNC(CCO)C(=O)O)c1 (configuration not stated)	740	2300	0.02			
O=C(Nc1c(Cl)c[n+]([O-])cc1Cl)c1ccc(OC(F)F)c(OCCCNC2CCOC2=O)c1 (configuration not stated)	88	170			8	
O=C(Nc1c(Cl)cncc1Cl)c1ccc(OC(F)F)c(OCCCCNC(CCO)C(=O)O)c1 (configuration not stated)	180	150	0.03			
O=C(Nc1c(Cl)cncc1Cl)c1ccc(OC(F)F)c(OCCCN[C@@H](CCO)C(=O)O)c1	2700	> 10000				

Other lines, results leading:

IC50 [1] [nM]	IC50 [2] [nM]	Papp [3] [×10⁻⁶ cm/s]	half-life [4] [min]	half-life [5] [min]	half-life [6] [min]	Compound
12	7.3					O=C(Nc1c(Cl)cncc1Cl)c1ccc(OC(F)F)c(OCCCN[C@@H]2CCOC2=O)c1
1.8	5.5		> 60	< 5	39	O=C(Nc1c(Cl)cncc1Cl)c1ccc(OC(F)F)c(OCCCSC2CCOC2=O)c1 (configuration not stated)
5.4	18		> 60	< 5	> 60	O=C(Nc1c(Cl)cncc1Cl)c1ccc(OC(F)F)c(OCCCNC2CCOC2=O)c1 (configuration not stated)
4	6.6	4.7	> 60	< 5	> 60	O=C(Nc1c(Cl)cncc1Cl)c1ccc(OC(F)F)c(OCCCCNC2CCOC2=O)c1 (configuration not stated)
4.7	1.8		> 60	< 5		O=C(Nc1c(Cl)cncc1Cl)c1ccc(OC(F)F)c(OCCCCSC2CCOC2=O)c1 (configuration not stated)
11	48					O=C(Nc1c(Cl)cncc1Cl)c1ccc(OC(F)F)c(OCCCN[C@H]2CCOC2=O)c1
